pIC50, pKi: −log10 of the molar value.
Experiments:
[1] = system: Mus musculus; experiment: Toxicity in formalin-induced pain mouse model assessed as hyperthermia at 10 mg/kg, po; assay type: organism-based; details: in vivo
[2] = biological target: T1, Transient receptor potential cation channel subfamily V member 1 (Homo sapiens, UniProt Q8NER1); experiment: Antagonist activity at recombinant human TRPV1 expressed in CHOK1 cells assessed as reduction in temperature-induced Ca2+ flux after 15 mins at 45 degC by fluo-4-based FLIPR assay; assay type: cell-based
[3] = system: Rattus norvegicus; experiment: In vivo antagonist activity at TRPV1 in rat assessed as reduction in capsaicin-induced hypothermia at 10 mg/kg, po relative to control; assay type: functional
[4] = biological target: T1, Transient receptor potential cation channel subfamily V member 1; experiment: Antagonist activity at recombinant human TRPV1 expressed in CHOK1 cells assessed as reduction in low pH-induced Ca2+ flux after 15 mins by fluo-4-based FLIPR assay; assay type: cell-based
[5] = system: Mus musculus; experiment: Analgesic activity in formalin-induced pain mouse model assessed reduction in pain response at 3 mg/kg, iv measured at 20 to 30 mins post administration by formalin test relative to control; assay type: functional
[6] = biological target: Transient receptor potential cation channel subfamily V member 1 (Rattus norvegicus, UniProt O35433); experiment: Antagonist activity at recombinant rat TRPV1 expressed in HEK293 cells assessed as reduction in capsaicin-induced Ca2+ flux preincubated for 3 mins followed by capsaicin addition measured by calcium 4-dye based FLIPR assay; assay type: cell-based
[7] = biological target: T1, Transient receptor potential cation channel subfamily V member 1; experiment: Antagonist activity at recombinant human TRPV1 expressed in CHOK1 cells assessed as reduction in capsaicin-induced Ca2+ flux after 15 mins by fluo-4-based FLIPR assay; assay type: cell-based; details: for pKi: read-out: Ki
[8] = system: Rattus norvegicus; experiment: In vivo antagonist activity at TRPV1 in rat assessed as reduction in capsaicin-induced hypothermia at 3 mg/kg, po relative to control; assay type: functional

T1 sequence (Q8NER1 whole entry): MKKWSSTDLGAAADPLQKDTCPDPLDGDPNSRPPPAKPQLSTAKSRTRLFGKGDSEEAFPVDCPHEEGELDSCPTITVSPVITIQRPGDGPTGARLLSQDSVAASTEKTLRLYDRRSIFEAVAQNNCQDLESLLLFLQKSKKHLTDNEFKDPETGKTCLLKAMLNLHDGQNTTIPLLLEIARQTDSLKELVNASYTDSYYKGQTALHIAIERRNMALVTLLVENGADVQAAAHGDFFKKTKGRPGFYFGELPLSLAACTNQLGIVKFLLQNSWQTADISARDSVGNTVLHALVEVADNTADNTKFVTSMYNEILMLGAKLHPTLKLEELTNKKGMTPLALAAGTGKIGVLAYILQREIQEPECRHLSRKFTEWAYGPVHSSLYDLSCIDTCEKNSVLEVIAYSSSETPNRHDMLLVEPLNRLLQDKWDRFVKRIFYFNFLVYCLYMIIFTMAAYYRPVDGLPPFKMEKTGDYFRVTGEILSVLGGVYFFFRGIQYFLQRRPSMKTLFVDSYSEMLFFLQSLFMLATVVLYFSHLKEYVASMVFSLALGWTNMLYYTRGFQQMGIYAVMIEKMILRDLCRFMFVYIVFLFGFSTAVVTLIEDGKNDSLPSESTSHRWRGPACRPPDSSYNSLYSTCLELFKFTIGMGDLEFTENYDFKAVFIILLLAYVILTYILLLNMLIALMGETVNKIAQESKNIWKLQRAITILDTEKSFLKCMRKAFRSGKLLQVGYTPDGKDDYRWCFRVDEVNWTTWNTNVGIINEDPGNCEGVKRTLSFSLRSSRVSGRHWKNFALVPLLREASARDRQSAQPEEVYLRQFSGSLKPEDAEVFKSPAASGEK
Transient receptor potential cation channel subfamily V member 1 (Rattus norvegicus, UniProt O35433), sequence (O35433 whole entry): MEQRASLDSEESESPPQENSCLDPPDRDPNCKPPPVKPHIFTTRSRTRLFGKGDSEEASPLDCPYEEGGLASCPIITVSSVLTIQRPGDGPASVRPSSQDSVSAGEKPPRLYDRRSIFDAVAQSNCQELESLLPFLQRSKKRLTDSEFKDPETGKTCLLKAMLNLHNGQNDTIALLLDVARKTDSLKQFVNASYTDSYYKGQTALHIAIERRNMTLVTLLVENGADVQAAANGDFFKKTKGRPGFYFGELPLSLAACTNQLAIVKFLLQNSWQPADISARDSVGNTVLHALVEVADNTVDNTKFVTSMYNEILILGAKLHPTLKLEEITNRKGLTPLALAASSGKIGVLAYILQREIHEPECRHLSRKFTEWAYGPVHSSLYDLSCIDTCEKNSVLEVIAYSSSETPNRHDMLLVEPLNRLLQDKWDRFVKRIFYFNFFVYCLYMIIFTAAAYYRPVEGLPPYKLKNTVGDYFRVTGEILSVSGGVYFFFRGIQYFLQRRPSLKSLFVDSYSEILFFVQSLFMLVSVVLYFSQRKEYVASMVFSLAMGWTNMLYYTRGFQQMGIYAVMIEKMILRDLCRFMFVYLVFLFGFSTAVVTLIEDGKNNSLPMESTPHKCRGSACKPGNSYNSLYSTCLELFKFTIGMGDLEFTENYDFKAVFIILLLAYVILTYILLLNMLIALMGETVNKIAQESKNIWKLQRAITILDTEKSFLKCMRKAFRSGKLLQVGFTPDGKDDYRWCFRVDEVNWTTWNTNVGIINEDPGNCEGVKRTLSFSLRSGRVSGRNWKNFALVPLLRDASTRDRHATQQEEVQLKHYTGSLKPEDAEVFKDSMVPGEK

| SMILES | pKi [7] | other results |
| --- | --- | --- |
| CC1CCN(c2nc(C(F)(F)F)ccc2CNC(=O)C(C)c2ccc(NS(=O)(=O)C(F)(F)F)c(F)c2)CC1 (stereo not drawn) | – | Ki [7]: Not Active |
| CC1CCN(c2nc(C(F)(F)F)ccc2CNC(=O)C(C)c2ccc(NS(C)(=O)=O)c(Br)c2)CC1 (stereo not drawn) | 8.49 | – |
| CC1CCN(c2nc(C(F)(F)F)ccc2CNC(=O)C(C)c2ccc(N(CC#N)S(C)(=O)=O)c(F)c2)CC1 (stereo not drawn) | – | Ki [7]: Not Active |
| CC1CCN(c2nc(C(F)(F)F)ccc2CNC(=O)C(C)c2ccc(NS(C)(=O)=O)c(Cl)c2)CC1 (stereo not drawn) | 8.64 | – |
| C=CC(=O)N(c1ccc(C(C)C(=O)NCc2ccc(C(F)(F)F)nc2N2CCC(C)CC2)cc1F)S(C)(=O)=O (stereo not drawn) | 8.62 | – |
| COc1cc(C(C)C(=O)NCc2ccc(C(F)(F)F)nc2N2CCC(C)CC2)ccc1NS(C)(=O)=O (stereo not drawn) | 9.10 | – |
| CC1CCN(c2nc(C(F)(F)F)ccc2CNC(=O)C(C)c2ccc(NS(N)(=O)=O)c(F)c2)CC1 (stereo not drawn) | 8.57 | – |

More lines, main results first:

| pKi [7] | SMILES | other results |
| --- | --- | --- |
| 9.70 | CC1CCN(c2nc(C(F)(F)F)ccc2CNC(=O)C(C)c2cc(F)c(NS(C)(=O)=O)c(F)c2)CC1 (stereo not drawn) | Activity [1]: Toxic; pIC50 [2]: 8.09; inhibition in vivo at 10 mg/kg [3]: 100%; pIC50 [4]: 8.06; inhibition in vivo at 3 mg/kg [5]: 43%; pKi [6]: 10.00; inhibition in vivo at 3 mg/kg [8]: 57% |
| 8.80 | COc1cc(C(C)C(=O)NCc2ccc(C(F)(F)F)nc2N2CCC(C)CC2)cc(OC)c1NS(C)(=O)=O (stereo not drawn) | – |
| 9.15 | CC1CCN(c2nc(C(F)(F)F)ccc2CNC(=O)C(C)c2cc(F)c(NS(C)(=O)=O)c(Br)c2)CC1 (stereo not drawn) | – |
| 9.52 | COc1cc(C(C)C(=O)NCc2ccc(C(F)(F)F)nc2N2CCC(C)CC2)cc(F)c1NS(C)(=O)=O (stereo not drawn) | – |

— ChEMBL document CHEMBL4118257, “Discovery of 2-(3,5-difluoro-4-methylsulfonaminophenyl)propanamides as potent TRPV1 antagonists” (Bioorg Med Chem Lett, 2018)
